Laboratory results from publication PMC10661964 (Current Drug Metabolism, 2023).
Where two headings read alike, the source gives them in different places. Marks after values point to notes of the source that are not given here.

Assays:
[1] = Mass balance and metabolite profiling in excreta after oral [14C]-nifurtimox in intact rats; conditions: intact male Wistar rats, 2.5 mg/kg oral, up to 120 h
Procedure: After an adaption period, the animals were prepared for the study. Bile duct cannulation was performed on selected animals the day before their use in experiments.
In a mass balance study (n = 5) and a PK study (n = 2 per timepoint), 2.5 mg/kg b.w. […] For i.v. administration, 2.5 mg/kg b.w. […] In an additional stability study, male Wistar rats (n = 3 per timepoint) were administered 2.5 mg/kg b.w. […] The total radioactivity concentration in the dosage form was confirmed by liquid scintillation counting (LSC).
Animals were housed in suitable metabolism cages. Blood was collected from separate rats at 0.25, 0.5, 1, 1.5, 2, 3, 5, and 8 h post-dose and stored in lithium heparinized tubes. Blood cells and plasma were separated by centrifugation. Plasma was stored at ≤-15°C prior to analysis. […] At the end of the study, the cages were rinsed with water, and samples were collected. All biological samples were weighed immediately. Feces samples were homogenized with water to obtain a uniform radioactivity distribution. All samples were stored deep-frozen at ≤-15/-70°C before further processing. During the necropsy, selected organs and tissues were collected and wet-weighed. The remaining carcass was also wet-weighed. The carcass and all tissues were homogenized and stored at room temperature prior to processing for analysis. In the stability study, blood and urine were collected at 0.25 and 0.5 h post-dose. Plasma and urine were immediately frozen in liquid nitrogen and stored at -80°C to prevent degradation. The total radioactivity in samples and tissues was determined by LSC after appropriate sample preparation.
Aliquots of individual urine or bile samples were pooled separately for each time interval by equal volume and analyzed using HPLC-LSC. Aliquots of individual feces samples were pooled separately for each time interval, ensuring that each aliquot contained the same amount of radioactivity. The pooled samples were extracted twice with a mixture of acetonitrile/water (80:20 v/v, 2 x 0.5 mL). The resulting suspensions were centrifuged (20,000 g, 5 min), and the supernatants were then combined for each time interval, concentrated, and subjected to HPLC-LSC.
The amount of total radioactivity in urine, feces, bile, and tissues was determined by multiplying the volume or weight of the samples by the respective total radioactivity concentration. The amount of radioactivity recovered in the excreta (AE), cage wash, and tissues was compared with the administered radioactive dose to establish the radioactive balance. Cumulative excretion was calculated as the sum of the excretion for each collection interval. Arithmetic means and coefficients of variation (CV) were calculated for these percentages. During metabolite profiling, the concentration or amount of each analyte for each sample and timepoint or interval was calculated by multiplying the total radioactivity concentration or amount excreted of each sample with the percent area of each analyte obtained after HPLC-LSC separation.

[2] = Plasma PK of total radioactivity, [14C]-nifurtimox and metabolites after oral dosing (HPLC-LSC); type: in vivo; conditions: male Wistar rats
Procedure: (§1) Animals were housed in suitable metabolism cages. […] Blood cells and plasma were separated by centrifugation. Plasma was stored at ≤-15°C prior to analysis. […] All biological samples were weighed immediately. […] The remaining carcass was also wet-weighed.
Aliquots of individual plasma samples were pooled separately for each timepoint by equal volume. For protein precipitation, pooled plasma was treated with a three-fold volume of acetonitrile. Samples were homogenized and precipitated by centrifugation (20,000 g, 5 min). Samples were concentrated and analyzed using high-performance liquid chromatography (HPLC) with off-line radioactivity detection by LSC (HPLC-LSC).

CYP 2C19 [3] = molecular target: CYP 2C19 (Homo sapiens, UniProt P33261); assay: CYP inhibition with probe substrate; type: in vitro ADME; conditions: probe substrate mephenytoin
Source text: (§2) The inhibition of cytochrome P450 (CYP) isoforms and a range of cellular transporters (except multidrug and toxin extrusion [MATE] proteins), as well as the induction of CYP isoforms were investigated using previously described methods.

[4] = Mass balance and metabolite profiling in excreta after i.v. [14C]-nifurtimox in bile duct-cannulated (BDC) rats; type: in vivo, male Wistar rats; conditions: BDC male Wistar rats, 2.5 mg/kg i.v., up to 24 h
Procedure: as §1

CYP 2C19 [5] = assay: CYP induction (mRNA and CYP activity); type: in vitro ADME, human
Source text: as §2

[6] = Quantification of nifurtimox and metabolites in rat plasma after a single high dose (200 mg/kg); type: in vivo, Wistar rats; conditions: for AUC(0-t) / AUC / Cmax / Tmax / half-life: Wistar, rat, plasma, po, 200 mg/kg; for ratio of rat:human AUC(0-24): rat 200 mg/kg oral vs human 120 mg oral
Procedure: Blood cells and plasma were then separated by centrifugation, and the plasma was stored at ≤-15°C until required. For analysis, plasma samples were thawed at room temperature and homogenized by vortex mixing. Plasma samples were pooled separately for male and female rats by combining 25 µL from each of the 4 animals for each timepoint. […] To each pooled plasma (100 µL), calibration, or control sample, 300 µL of an internal standard solution containing [^2H8]-nifurtimox (500 ng/mL) and [^2H3]-M-6 (2500 ng/mL) in acetonitrile + 0.5% formic acid in water (v/v) was added and mixed thoroughly. All samples were then centrifuged (20,000 g, 5 min) to precipitate the protein. The supernatant was analyzed using a 1290 Infinity LC system equipped with a diode array detector and an Orbitrap Q-Exactive Plus HRMS (Thermo Fisher Scientific, Bremen, Germany) with a heated electrospray ionization source. […] The mobile phase gradient was: 0 min, 0% B; 2.5 min, 0% B; 3 min, 20% B; 8 min, 45% B; 9 min, 90% B; 10.1 min, 90% B; 12 min, 0% B; 13 min, 0% B. The following HRMS parameters were used: mass range, 120-200 Da (0-2.5 min) and 230-600 Da (2.5-13 min) in full scan mode; resolution, 280,000; ion source voltage, 3500 V; capillary temperature, 300°C; source temperature, 60°C.
The calibration was based on the relative peak area as a function of concentration obtained by linear regression. […] Thus, all concentrations in μg/mL were back-calculated to nmol/mL. The PK parameters for each analyte were calculated using ToxKin software, as described above.

[7] = single oral 2.5 mg/kg [14C]-nifurtimox, pooled plasma
[8] = 30-min preincubation, read-out: Pre- IC50 (+ NADPH)
[9] = coincubation, read-out: Co- IC50
[10] = female, read-out: AUC(0–24), female animals
[11] = female, read-out: AUC, female animals
[12] = female, read-out: Cmax, female animals
[13] = female, read-out: tmax, female animals
[14] = female, read-out: t½, female animals (converted)
[15] = male, read-out: AUC(0–24), male animals
[16] = male, read-out: AUC, male animals
[17] = male, read-out: Cmax, male animals
[18] = male, read-out: tmax, male animals
[19] = male, read-out: t½, male animals (converted)

CYP 2C19 (Homo sapiens, UniProt P33261), sequence (P33261 whole entry, canonical isoform): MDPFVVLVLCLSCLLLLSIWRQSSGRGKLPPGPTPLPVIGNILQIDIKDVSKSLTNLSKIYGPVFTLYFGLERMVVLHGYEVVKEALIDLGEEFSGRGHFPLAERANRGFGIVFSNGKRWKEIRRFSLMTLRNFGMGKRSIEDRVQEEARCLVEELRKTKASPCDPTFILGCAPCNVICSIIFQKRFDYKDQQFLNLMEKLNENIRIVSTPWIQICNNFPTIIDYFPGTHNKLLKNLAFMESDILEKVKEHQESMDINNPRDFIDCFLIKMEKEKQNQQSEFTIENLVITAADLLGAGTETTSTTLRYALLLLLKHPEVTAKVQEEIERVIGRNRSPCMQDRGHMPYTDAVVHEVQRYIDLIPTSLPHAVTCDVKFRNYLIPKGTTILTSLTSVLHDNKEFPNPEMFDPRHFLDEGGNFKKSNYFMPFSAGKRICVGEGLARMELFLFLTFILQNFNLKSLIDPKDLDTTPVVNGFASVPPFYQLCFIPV

Structure (SMILES): CC1CS(=O)(=O)CCN1n1cc(SCC(N)C(=O)O)ccc1=O (stereo not drawn) [M-4]
- component excreted in urine, oral dosing [1]: no M-4 was detected
- %AUC(0-8) (relative to total radioactivity AUC(0-8)) ([2]; oral 2.5 mg/kg, M-2+M-3, M-4, M-5 are estimates based on AUC(0-tn), 2.5 mg/kg): 2.42^c %
- AUC [2, 7]: 791 µg-eq*h/L
- AUC(0-tn) [2, 7]: 107 µg-eq*h/L
- Cmax [2, 7]: 48.3 µg-eq/L
- tn (time of last quantifiable concentration) [2, 7]: 3 h
- half-life ([2]; rat, single oral 2.5 mg/kg [14C]-nifurtimox, plasma, interval up to 8 h, read-out: t½ (converted)): 738 min
- Tmax ([2]; rat, single oral 2.5 mg/kg [14C]-nifurtimox, pooled plasma): 30 min
- IC50 (CYP 2C19 [3]; [8]): > 20 µM
- IC50 (CYP 2C19 [3]; [9]): > 20 µM
- TDI (time-dependent inhibition) (CYP 2C19 [3]): No
- component excreted in bile, i.v. dosing [4]: 0.968 % of the administered dose
- concentration up to which no induction (mRNA and CYP activity) (CYP 2C19 [5]): up to 80000 µg/L
- AUC(0-t) [6, 10]: 4.84 µM·h
- AUC [6, 11]: 7.41 µM·h
- Cmax [6, 12]: 568 nM
- Tmax [6, 13]: 3 h
- half-life [6, 14]: 1120 min
- AUC(0-t) [6, 15]: 4.78 µM·h
- AUC [6, 16]: 9.77 µM·h
- Cmax [6, 17]: 338 nM
- Tmax [6, 18]: 2 h
- half-life [6, 19]: 1100 min
- ratio of rat:human AUC(0-24) [6]: 2.0-2.1 fold

Structure (SMILES): CC1CS(=O)(=O)CCN1N (stereo not drawn) [M-6]
- IC50 (CYP 2C19 [3]; [8]): > 100 µM
- IC50 (CYP 2C19 [3]; [9]): > 100 µM
- TDI (time-dependent inhibition) (CYP 2C19 [3]): No
- concentration up to which no induction (mRNA and CYP activity) (CYP 2C19 [5]): up to 90000 µg/L
- AUC(0-t) [6, 10]: 65.8 µM·h
- AUC [6, 11]: 96.1 µM·h
- Cmax [6, 12]: 3920 nM
- Tmax [6, 13]: 3 h
- half-life [6, 14]: 810 min
- AUC(0-t) [6, 15]: 78.4 µM·h
- AUC [6, 16]: 148 µM·h
- Cmax [6, 17]: 3650 nM
- Tmax [6, 18]: 24 h
- half-life [6, 19]: 636 min
- ratio of rat:human AUC(0-24) [6]: 2.4-2.8 fold
